Results from ChEMBL document CHEMBL1201862, “PubChem BioAssay data set” (2004).
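Exposure lasted 48 hours, with cells grown in 96-well plates and compounds tested at five concentrations. At the GI50, growth is halved.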 Active and inactive are the calls of the source. No stated cut-off is given here; in the data, active = GI50 up to about 1.1 µM and inactive = higher.

Experiments:
Experiment in all cases: NCI tumour cell line growth inhibition, 48 h
M14 = system: M14
Malme-3M = system: Malme-3M
KM12 = system: KM12
OVCAR-8 = system: OVCAR-8
NCI-H522 = system: NCI-H522
HL-60 = system: HL-60
U-251 = system: U-251
OVCAR-3 = system: OVCAR-3
UACC-62 = system: UACC-62
EKVX = system: EKVX
A498 = system: A498
DMS-114 = system: DMS-114
CCRF-CEM = system: CCRF-CEM
HOP-62 = system: HOP-62
NCI-H460 = system: NCI-H460
SK-OV-3 = system: SK-OV-3
SK-MEL-2 = system: SK-MEL-2
SNB-78 = system: SNB-78
HT-29 = system: HT-29
DLD-1 = system: DLD-1
SF-268 = system: SF-268
RXF 393 = system: RXF 393
MOLT-4 = system: MOLT-4
UO-31 = system: UO-31
OVCAR-5 = system: OVCAR-5
SNB-75 = system: SNB-75
HCT-15 = system: HCT-15
LXFL 529 = system: LXFL 529
DMS-273 = system: DMS-273
OVCAR-4 = system: OVCAR-4
SNB-19 = system: SNB-19
SN12C = system: SN12C
K562 = system: K562
IGROV-1 = system: IGROV-1
SK-MEL-5 = system: SK-MEL-5
SF-539 = system: SF-539
786-0 = system: 786-0
SR = system: SR
HCT-116 = system: HCT-116
ACHN = system: ACHN
COLO 205 = system: COLO 205
SF-295 = system: SF-295
A549 = system: A549
HOP-18 = system: HOP-18
SK-MEL-28 = system: SK-MEL-28
SW-620 = system: SW-620
UACC-257 = system: UACC-257
M19-MEL = system: M19-MEL
RPMI-8226 = system: RPMI-8226
NCI-H23 = system: NCI-H23
TK-10 = system: TK-10
HOP-92 = system: HOP-92
HCC 2998 = system: HCC 2998
LOX IMVI = system: LOX IMVI
KM-20L2 = system: KM-20L2

`CN(C)CCC(/C=C/c1ccccc1)=N\Nc1ccc(Cl)cc1Cl` was tested, and the GI50 (M14) was 13.7 µM (inactive), the GI50 (Malme-3M) was 18.5 µM (inactive) and the GI50 (KM12) was 15.1 µM (inactive). For the same molecule, the GI50 (OVCAR-8) was 16.3 µM (inactive), the GI50 (NCI-H522) was 15.3 µM (inactive) and the GI50 (HL-60) was 2.29 µM (inactive). For the same molecule, the GI50 (U-251) was 11.6 µM (inactive), the GI50 (OVCAR-3) was 14.1 µM (inactive) and the GI50 (UACC-62) was 9.35 µM (inactive). The GI50 (EKVX) was 15 µM (inactive), the GI50 (A498) was 16.6 µM (inactive) and the GI50 (DMS-114) was 14.8 µM (inactive). For the same molecule, the GI50 (CCRF-CEM) was 10.5 µM (inactive), the GI50 (HOP-62) was 13.6 µM (inactive) and the GI50 (NCI-H460) was 13.8 µM (inactive). For the same molecule, the GI50 (SK-OV-3) was 10.8 µM (inactive), the GI50 (SK-MEL-2) was 13.3 µM (inactive) and the GI50 (SNB-78) was 13.5 µM (inactive). The GI50 (HT-29) was 14.2 µM (inactive), the GI50 (DLD-1) was 14.1 µM (inactive) and the GI50 (SF-268) was 12.2 µM (inactive). The GI50 (RXF 393) was 8.77 µM (inactive), the GI50 (MOLT-4) was 10.9 µM (inactive) and the GI50 (UO-31) was 1.73 µM (inactive). For the same molecule, the GI50 (OVCAR-5) was 15.5 µM (inactive), the GI50 (SNB-75) was 6.1 µM (inactive) and the GI50 (HCT-15) was 11.9 µM. For the same molecule, the GI50 (LXFL 529) was 10.9 µM (inactive), the GI50 (DMS-273) was 13.2 µM (inactive) and the GI50 (OVCAR-4) was 14.7 µM (inactive). For the same molecule, the GI50 (SNB-19) was 15.5 µM (inactive), the GI50 (SN12C) was 11.1 µM (inactive) and the GI50 (K562) was 13.1 µM (inactive). The GI50 (IGROV-1) was 8.02 µM (inactive), the GI50 (SK-MEL-5) was 13.4 µM (inactive) and the GI50 (SF-539) was 15.2 µM (inactive). The GI50 (786-0) was 12.9 µM (inactive), the GI50 (SR) was 7.57 µM (inactive) and the GI50 (HCT-116) was 14.5 µM (inactive). The GI50 (ACHN) was 12.7 µM (inactive), the GI50 (COLO 205) was 14.6 µM (inactive) and the GI50 (SF-295) was 16.6 µM (inactive). For the same molecule, the GI50 (A549) was 15.6 µM (inactive), the GI50 (HOP-18) was 10.2 µM (inactive) and the GI50 (SK-MEL-28) was 14.3 µM (inactive). For the same molecule, the GI50 (SW-620) was 14 µM (inactive), the GI50 (UACC-257) was 13.9 µM (inactive) and the GI50 (M19-MEL) was 15.6 µM (inactive). The GI50 (RPMI-8226) was 11.7 µM (inactive), the GI50 (NCI-H23) was 17.1 µM (inactive) and the GI50 (TK-10) was 14.2 µM (inactive).

With `COc1ccc(-n2cnnc2-c2nsc3ccccc23)cc1` the GI50 (M14) was > 100 µM (inactive), the GI50 (KM12) was 95.1 µM (inactive) and the GI50 (OVCAR-8) was > 100 µM (inactive). The GI50 (HL-60) was 78 µM (inactive), the GI50 (U-251) was > 100 µM (inactive) and the GI50 (OVCAR-3) was 51.4 µM (inactive). The GI50 (UACC-62) was > 100 µM (inactive), the GI50 (EKVX) was > 100 µM (inactive) and the GI50 (DMS-114) was > 100 µM (inactive). For the same molecule, the GI50 (CCRF-CEM) was > 100 µM (inactive), the GI50 (HOP-62) was 94.8 µM (inactive) and the GI50 (NCI-H460) was > 100 µM (inactive). For the same molecule, the GI50 (HOP-92) was 45.1 µM (inactive), the GI50 (SK-MEL-2) was > 100 µM (inactive) and the GI50 (SNB-78) was > 100 µM (inactive). The GI50 (HT-29) was 92.5 µM (inactive), the GI50 (SF-268) was 75.3 µM (inactive) and the GI50 (RXF 393) was 12.4 µM (inactive). The GI50 (MOLT-4) was > 100 µM (inactive), the GI50 (UO-31) was > 100 µM (inactive) and the GI50 (HCC 2998) was > 100 µM (inactive). The GI50 (LOX IMVI) was > 100 µM (inactive), the GI50 (OVCAR-5) was > 100 µM (inactive) and the GI50 (SNB-75) was 22.2 µM (inactive). The GI50 (HCT-15) was 51.6 µM, the GI50 (LXFL 529) was > 100 µM (inactive) and the GI50 (DMS-273) was 44.7 µM (inactive). For the same molecule, the GI50 (OVCAR-4) was > 100 µM (inactive), the GI50 (KM-20L2) was > 100 µM (inactive) and the GI50 (SNB-19) was > 100 µM (inactive). The GI50 (SN12C) was 99.8 µM (inactive), the GI50 (K562) was 90.6 µM (inactive) and the GI50 (IGROV-1) was > 100 µM (inactive). The GI50 (SK-MEL-5) was > 100 µM (inactive), the GI50 (SF-539) was 23.4 µM (inactive) and the GI50 (SR) was > 100 µM (inactive). The GI50 (HCT-116) was > 100 µM (inactive), the GI50 (ACHN) was 90.6 µM (inactive) and the GI50 (COLO 205) was > 100 µM (inactive). For the same molecule, the GI50 (A549) was > 100 µM (inactive), the GI50 (HOP-18) was 36.6 µM (inactive) and the GI50 (SK-MEL-28) was 78.2 µM (inactive). For the same molecule, the GI50 (SW-620) was > 100 µM (inactive), the GI50 (UACC-257) was > 100 µM (inactive) and the GI50 (M19-MEL) was > 100 µM (inactive). For the same molecule, the GI50 (RPMI-8226) was 60 µM (inactive), the GI50 (NCI-H23) was 95.3 µM (inactive) and the GI50 (TK-10) was > 100 µM (inactive).
